Source: PubChem BioAssay AID248 (DTP/NCI, 2004)
Several values for one entry are separate records, joined by “and”; a condition that tells them apart may be missing. Equal values may be shown once. Inconclusive results and toxic doses are left out. Cut-off read from the data, not from the text of the source: active = T/C of 150% or more; inactive = T/C below 125%.

Test system: L1210 leukemia ip in BDF1 mice, survival T/C
Assay: NCI In Vivo Anticancer Drug Screen. Data for tumor model L1210 Leukemia (intraperitoneal) in B6D2F1 (BDF1) mice
Settings: endpoint: mean survival time, higher = longer survival
Summary of the method: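 Survival endpoint. Drug-treated group vs vehicle group, expressed as T divided by C. Tumor passaged by transplantation.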

[1] = dose: 100.0 mg/kg/injection, schedule: Q01DX001 (ip), vehicle: saline
[2] = dose: 200.0 mg/kg/injection, schedule: Q01DX001 (ip), vehicle: saline
[3] = dose: 400.0 mg/kg/injection, schedule: Q01DX001 (ip), vehicle: saline
[4] = dose: 100.0 mg/kg/injection, schedule: Q04DX003 (ip), vehicle: saline with Tween-80
[5] = dose: 200.0 mg/kg/injection, schedule: Q04DX003 (ip), vehicle: saline with Tween-80
[6] = dose: 400.0 mg/kg/injection, schedule: Q04DX003 (ip), vehicle: saline with Tween-80
[7] = dose: 25.0 mg/kg/injection, schedule: Q04DX003 (ip), vehicle: saline
[8] = dose: 50.0 mg/kg/injection, schedule: Q04DX003 (ip), vehicle: saline
[9] = dose: 100.0 mg/kg/injection, schedule: Q04DX003 (ip), vehicle: saline
[10] = dose: 50.0 mg/kg/injection, schedule: Q01DX001 (ip), vehicle: Klucel (hydroxypropylcellulose) (HPC)
[11] = dose: 100.0 mg/kg/injection, schedule: Q01DX001 (ip), vehicle: Klucel (hydroxypropylcellulose) (HPC)
[12] = dose: 12.5 mg/kg/injection, schedule: Q04DX003 (ip), vehicle: saline
[13] = dose: 5.0 mg/kg/injection, schedule: Q01DX001 (ip), vehicle: saline
[14] = dose: 10.0 mg/kg/injection, schedule: Q01DX001 (ip), vehicle: saline
[15] = dose: 20.0 mg/kg/injection, schedule: Q01DX001 (ip), vehicle: saline

Measured: T/C

CC(C)c1ccc(N2CSC(=S)N(c3ccc(C(C)C)cc3)C2)cc1
inactive: dose: 100.0 mg/kg/injection, schedule: Q04DX002 (sc), vehicle: olive oil, sesame oil, peanut oil 104 % of control | dose: 200.0 mg/kg/injection, schedule: Q04DX002 (sc), vehicle: olive oil, sesame oil, peanut oil 107 % of control | dose: 400.0 mg/kg/injection, schedule: Q04DX002 (sc), vehicle: olive oil, sesame oil, peanut oil 101 % of control

Cc1ccnc(NS(=O)(=O)c2ccc(N=Nc3ccc(N)nc3N)cc2)n1
inactive: [1] 100 % of control | [2] 102 % of control | [3] 100 % of control

O=C(O)C1CC(=O)N(Cc2ccccc2)C1 (stereo not drawn)
inactive: dose: 100.0 mg/kg/injection, schedule: Q01DX009 (ip), vehicle: saline with Tween-80 102 % of control | [4] 100 % of control | dose: 200.0 mg/kg/injection, schedule: Q01DX009 (ip), vehicle: saline with Tween-80 90 % of control | [5] 107 % of control | dose: 400.0 mg/kg/injection, schedule: Q01DX009 (ip), vehicle: saline with Tween-80 98 % of control | [6] 96 % of control

CC(C)NNC(=O)C(N)CCC(=O)O (stereo not drawn)
inactive: dose: 25.0 mg/kg/injection, schedule: Q01DX009 (ip), vehicle: saline 105 % of control | [7] 117 % of control | dose: 50.0 mg/kg/injection, schedule: Q01DX009 (ip), vehicle: saline 91 % of control | [8] 107 % of control | dose: 100.0 mg/kg/injection, schedule: Q01DX009 (ip), vehicle: saline 98 % of control | [9] 91 % of control | dose: 200.0 mg/kg/injection, schedule: Q01DX009 (ip), vehicle: saline 109 % of control | dose: 200.0 mg/kg/injection, schedule: Q04DX003 (ip), vehicle: saline 90 % of control | dose: 400.0 mg/kg/injection, schedule: Q01DX009 (ip), vehicle: saline 118 % of control | dose: 400.0 mg/kg/injection, schedule: Q04DX003 (ip), vehicle: saline 98 % of control

[N-]=[N+]=C1N=C(Cl)N=C1c1ncn[nH]1
inactive: dose: 25.0 mg/kg/injection, schedule: Q01DX001 (ip), vehicle: Klucel (hydroxypropylcellulose) (HPC) 97 % of control | [10] 108 % of control | [11] 102 % of control and 112 % of control | dose: 400.0 mg/kg/injection, schedule: Q01DX001 (ip), vehicle: Klucel (hydroxypropylcellulose) (HPC) 112 % of control

COc1ccc(CCN2COc3ccc4ccc(=O)oc4c3C2)cc1OC
inactive: dose: 100.0 mg/kg/injection, schedule: Q04DX003 (ip), vehicle: saline sonified 111 % of control | dose: 200.0 mg/kg/injection, schedule: Q04DX003 (ip), vehicle: saline sonified 111 % of control | dose: 400.0 mg/kg/injection, schedule: Q04DX003 (ip), vehicle: saline sonified 106 % of control

CCOc1nc(Cl)nc2nc[nH]c12
inactive: [1] 102 % of control | [2] 102 % of control | [3] 96 % of control

NC1CC=CCC1c1ccc2c(c1)OCO2 (stereo not drawn)
inactive: dose: 75.0 mg/kg/injection, schedule: Q01DX001 (ip), vehicle: saline 100 % of control | dose: 150.0 mg/kg/injection, schedule: Q01DX001 (ip), vehicle: saline 92 % of control

S=P(NCCCCCCNP(=S)(N1CC1)N1CC1)(N1CC1)N1CC1
inactive: dose: 100.0 mg/kg/injection, schedule: Q01DX001 (ip), vehicle: carboxymethylcellulose (CMC) 104 % of control | dose: 200.0 mg/kg/injection, schedule: Q01DX001 (ip), vehicle: carboxymethylcellulose (CMC) 112 % of control | dose: 400.0 mg/kg/injection, schedule: Q01DX001 (ip), vehicle: carboxymethylcellulose (CMC) 119 % of control

CC(=O)N[C@H]1CC[C@H]2[C@@H]3CCC4=CC(=O)CC[C@]4(C)[C@H]3CC[C@]12C
inactive: [4] 86 % of control | [5] 92 % of control | [6] 86 % of control

OCCc1cccc(O)c1
inactive: dose: 50.0 mg/kg/injection, schedule: Q01DX001 (ip), vehicle: saline 102 % of control | [1] 93 % of control | [2] 86 % of control | [3] 100 % of control

CC1(C)CC(N=Cc2ccccc2O)CC(C)(C)N1O.CC1(C)CC(N=Cc2ccccc2O)CC(C)(C)N1O.[Cu]
inactive: [12] 89 % of control | [7] 101 % of control | [8] 101 % of control

Nc1ncc(C[P+](c2ccccc2)(c2ccccc2)c2ccccc2)c(N)n1
inactive: dose: 12.5 mg/kg/injection, schedule: Q04DX003 (ip), vehicle: Klucel (hydroxypropylcellulose) (HPC) 102 % of control | dose: 25.0 mg/kg/injection, schedule: Q04DX003 (ip), vehicle: Klucel (hydroxypropylcellulose) (HPC) 112 % of control | dose: 50.0 mg/kg/injection, schedule: Q04DX003 (ip), vehicle: Klucel (hydroxypropylcellulose) (HPC) 105 % of control

O=C1c2cscc2C(O)(c2ccccc2)c2c(Cl)sc(Cl)c21 (stereo not drawn)
inactive: dose: 100.0 mg/kg/injection, schedule: Q01DX001 (ip), vehicle: saline with Tween-80 88 % of control | dose: 200.0 mg/kg/injection, schedule: Q01DX001 (ip), vehicle: saline with Tween-80 88 % of control | dose: 400.0 mg/kg/injection, schedule: Q01DX001 (ip), vehicle: saline with Tween-80 88 % of control

CSCC(NC(C)=O)C(=O)O (stereo not drawn)
inactive: [10] 100 % of control | [11] 98 % of control | dose: 200.0 mg/kg/injection, schedule: Q01DX001 (ip), vehicle: Klucel (hydroxypropylcellulose) (HPC) 91 % of control

c1ccc([P+](C2=NNCC2)(c2ccccc2)c2ccccc2)cc1
inactive: dose: 6.25 mg/kg/injection, schedule: Q01DX009 (ip), vehicle: Klucel (hydroxypropylcellulose) (HPC) 105 % of control | dose: 12.5 mg/kg/injection, schedule: Q01DX009 (ip), vehicle: Klucel (hydroxypropylcellulose) (HPC) 118 % of control | dose: 25.0 mg/kg/injection, schedule: Q01DX009 (ip), vehicle: Klucel (hydroxypropylcellulose) (HPC) 105 % of control and 109 % of control

COCc1ccc(C(=O)O)cc1
inactive: dose: 100.0 mg/kg/injection, schedule: Q01DX009 (ip), vehicle: gum acacia 101 % of control | dose: 200.0 mg/kg/injection, schedule: Q01DX009 (ip), vehicle: gum acacia 97 % of control | dose: 400.0 mg/kg/injection, schedule: Q01DX009 (ip), vehicle: gum acacia 101 % of control

[Cl][Pd]([Cl])([Cl])[Cl]
inactive: [12] 95 % of control | [7] 98 % of control | [8] 102 % of control | [9] 90 % of control

OB(O)CI
inactive: [13] 86 % of control | [14] 95 % of control | [15] 97 % of control

COC1C(O)C(C)OC(OC2CCC3(C)C(CCC4C3C(O)CC3(C)C(C5=CC(=O)OC5)CCC43O)C2)C1O (stereo not drawn)
inactive: [13] 103 % of control | [14] 103 % of control | [15] 101 % of control

Oc1ccccc1C=Nc1ccc(Cl)c(Cl)c1
inactive: dose: 100.0 mg/kg/injection, schedule: Q01DX009 (ip), vehicle: Klucel (hydroxypropylcellulose) (HPC) 93 % of control | dose: 200.0 mg/kg/injection, schedule: Q01DX009 (ip), vehicle: Klucel (hydroxypropylcellulose) (HPC) 93 % of control | dose: 400.0 mg/kg/injection, schedule: Q01DX009 (ip), vehicle: Klucel (hydroxypropylcellulose) (HPC) 96 % of control

Cc1ccc(N2C=C(c3ccccc3)CC2=O)cc1
inactive: dose: 100.0 mg/kg/injection, schedule: Q04DX002 (ip), vehicle: saline with Tween-80 107 % of control | dose: 200.0 mg/kg/injection, schedule: Q04DX002 (ip), vehicle: saline with Tween-80 100 % of control | dose: 400.0 mg/kg/injection, schedule: Q04DX002 (ip), vehicle: saline with Tween-80 104 % of control

CC(N)CCCO (stereo not drawn)
inactive: [13] 103 % of control | [14] 97 % of control | [15] 103 % of control | dose: 40.0 mg/kg/injection, schedule: Q01DX001 (ip), vehicle: saline 101 % of control | dose: 80.0 mg/kg/injection, schedule: Q01DX001 (ip), vehicle: saline 103 % of control
